In US20090227673A1, “Method and Composition for the Treatment of Parkinson's Disease” (priority 2006, published 2009):
Where two headings read alike, the source gives them in different places.

Target: T1, human COMT (Homo sapiens, UniProt P21964)
T1 construct: from tissue; host or cells: human liver cytosol (preparations HL4C, HL9C, HL8C)
T1 sequence (P21964 1-221 isoform P21964-2): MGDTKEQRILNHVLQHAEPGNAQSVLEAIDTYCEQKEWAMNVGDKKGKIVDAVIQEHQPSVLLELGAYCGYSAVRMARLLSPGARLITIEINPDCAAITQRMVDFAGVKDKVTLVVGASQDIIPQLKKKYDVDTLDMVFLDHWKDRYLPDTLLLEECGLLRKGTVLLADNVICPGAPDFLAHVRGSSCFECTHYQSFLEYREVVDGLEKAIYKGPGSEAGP
Assay: Inhibition of human liver COMT-mediated o-methylation of catecholamines (human liver cytosol, [3H-methyl]AdoMet)
Type: biochemical

[1] = 10 μM catecholamine substrate, 250 μM AdoMet, 0.25 mg/mL human liver cytosolic protein, 37° C., 10 min, pH 7.4

Row | SMILES | IC50 | IC50 [1]
1 | O=C(/C=C/c1ccc(O)c(O)c1)OCCc1ccccc1 [caffeic acid pheethyl ester, caffeic acid phenethyl ester] | 500 to 1000 nM | 
2 | O=c1c(O)c(-c2ccc(O)c(O)c2)oc2cc(O)cc(O)c12 [quercetin] |  | ~331 nM
3 | Oc1cc(O)c2c(c1)O[C@H](c1ccc(O)c(O)c1)[C@H](O)C2 [epicatechin] |  | 500 to 1000 nM
4 | O=C(/C=C/c1ccc(O)c(O)c1)O[C@@H]1C[C@](O)(C(=O)O)C[C@@H](O)[C@H]1O [chlorogenic acid] |  | 500 to 1000 nM
5 | O=C(O)/C=C/c1ccc(O)c(O)c1 [caffeic acid] |  | 500 to 1000 nM
